Measurements reported in patent US20160367490A1, “MULTI-LAYER TOPICALLY-APPLIED ARTICLE FOR PROVIDING A BENEFIT TO SKIN” (Johnson & Johnson Consumer Inc., priority 2015, published 2016).

Assay: Franz cell skin delivery of hexylresorcinol (HPLC)
Type: in vitro ADME
Settings: Franz cells, n=4, FIG. 3
Text: Wash Franz cells with ethanol 70%, water and receptor solution (1×PBS, phosphate buffered saline).
Measure skin thickness and electrical resistance
Mount the tissue on Franz cells (n=4).
Once equilibrated, make sure there isn't excess moisture on the surface of the tissue (SC) by dabbing the skin surface with Kimwipes.
Carefully remove the backing on the film and place it on the donor area with a light pressure (5 times tap on skin surface); the adhesive side is in touch with skin.
Mount the donor chamber and leave it overnight
Next morning (After 16 h time point), take a sample (300 uL) (Oh), replace with fresh 1×PBS.
Add 100 uL 1×PBS to the donor chamber, let it sit for 30 sec, remove it using a plastic pipet moving around the edge of the donor. Repeat this cycle 5 times. Pool these 1×PBS solution and analyze by HPLC
Remove the donor chamber with the tissue still mounted on the Franz cells. Use a cotton swab to take out all the remained liquid on skin. Extract drug from this swab by shaking at 100 rpm overnight in 2 mL ethanol: Water (50:50 v/v).
Put the donor chamber back. After every 2 hours (2,4,6 h), take sample (300 uL) and replace with fresh receptor solution.
At 22 h, remove the donor chamber, remove skin from cells, put skin on sheets of paper and do tape stripping with 2 tapes to remove the excessive drug on skin surface. Put these 2 tapes in a well in 6-well plate for extraction. […]

SMILES: CCCCCCCC/C=C\CCCCCCCC(=O)OCC(O)CO (stereo not shown) [Monumuls, glycerol oleate]
- delivery of the hexylresorcinol compared to Example 16C (no emulsifier): greatly enhanced
